According to patent US20170355708A1, “POTASSIUM CHANNEL MODULATORS” (Cadent Therapeutics, Inc., priority 2016, published 2017):

Biological target: T1, hSK2 channels (Homo sapiens, UniProt P0DP23+Q9H2S1)
T1 construct: expressed in transfected cells; host or cells: HEK293
Experiment: Whole-cell patch-clamp recording of SK2 channel current (SC100)
Assay type: cell-based
Conditions: Stimulating Concentration required for increasing the baseline current by 100%, HEK293 cells expressing hSK2; for SC100 uM: Table 3; for SC100 (μM): Table 4
Experimental: The biological activity of certain compounds were determined as follows. The ionic current through small-conductance Ca^2+-activated K^+ channels (SK channels, subtype 2) is recorded using the whole-cell configuration of the patch-clamp technique in a classic patch-clamp set-up using HEK293 tissue culture cells expressing hSK2 channels as described in Kasumu et. al., Chemistry & Biology 19, 1340-1353, Oct. 26, 2012.
The SC100 value determined is defined as the Stimulating Concentration required for increasing the baseline current by 100%.

Row | Compound | SC100 uM | SC100 (μM)
1 | Cc1cc(C)n(-c2cc(NC(C)C(N)=O)nc(Nc3ccc(F)c(F)c3)n2)n1 (stereo not drawn) [Compound 113, 2-((2-((3,4-difluorophenyl)amino)-6-(3,5-dimethyl-1H-pyrazol-1-yl)pyrimidin-4-yl)amino)propanamide] | ++ (++ means 200 nM-1000 nM) | 
2 | CC(=O)NCc1cc(Nc2ccc(F)cc2)nc(-n2cc(C)c(CF)n2)c1 [Compound 161, N-((2-(3-(fluoromethyl)-4-methyl-1H-pyrazol-1-yl)-6-((4-fluorophenyl)amino)pyridin-4-yl)methyl)acetamide] | +++ (+++ means <200 nM) | 
3 | COc1cc(Nc2ccc(F)cc2)nc(-c2nc(C)cs2)n1 [IN11059-059-P1] |  | ++ (++ means 200 nM-1000 nM)
4 | CC(=O)N1CCN(c2cc(Nc3ccc(F)cc3)nc(-n3nc(C)cc3C)n2)CC1 [Compound 102, 1-(4-(2-(3,5-dimethyl-1H-pyrazol-1-yl)-6-((4-fluorophenyl)amino)pyrimidin-4-yl)piperazin-1-yl)ethan-1-one] | ++ (++ means 200 nM-1000 nM) | 
5 | Cc1cc(C)n(-c2cc(N3C[C@@H]4C[C@H]3CN4)nc(Nc3ccc(F)c(F)c3)n2)n1 (stereo in doubt) [Compound 109, 4-((1S,4S)-2,5-diazabicyclo[2.2.1]heptan-2-yl)-N-(3,4-difluorophenyl)-6-(3,5-dimethyl-1H-pyrazol-1-yl)pyrimidin-2-amine] | ++ (++ means 200 nM-1000 nM) | 
6 | CC(=O)N1CCN(c2cc(-n3nc(C)cc3C)nc(Nc3ccc(F)cc3F)n2)CC1 [Compound 104, 1-(4-(2-((2,4-difluorophenyl)amino)-6-(3,5-dimethyl-1H-pyrazol-1-yl)pyrimidin-4-yl)piperazin-1-yl)ethan-1-one] | ++ (++ means 200 nM-1000 nM) | 
7 | Cc1cc(C)n(-c2nc(Nc3ccc(F)cc3F)cc(N3CCNC(C(N)=O)C3)n2)n1 (stereo not drawn) [Compound 115, 4-(6-((2,4-difluorophenyl)amino)-2-(3,5-dimethyl-1H-pyrazol-1-yl)pyrimidin-4-yl)piperazine-2-carboxamide] | ++ (++ means 200 nM-1000 nM) | 
8 | Cc1cccc(-c2nccc(Nc3ccc(F)cc3)n2)n1 [IN11130-036-P1] |  | + (+ means >1 uM)
9 | Cc1cc(C)n(-c2cc(N3CCO[C@H](C(N)=O)C3)nc(Nc3ccc(F)c(F)c3)n2)n1 (single isomer, unassigned) [Compound 131, (+)-4-(2-((3,4-difluorophenyl)amino)-6-(3,5-dimethyl-1H-pyrazol-1-yl)pyrimidin-4-yl)morpholine-2-carboxamide] | +++ (+++ means <200 nM) | 
10 | Cc1cc(C)n(-c2cc(N3CCOC(C(N)=O)C3)nc(Nc3ccc(F)c(F)c3)n2)n1 (racemic) [Compound 129, 4-(2-((3,4-difluorophenyl)amino)-6-(3,5-dimethyl-1H-pyrazol-1-yl)pyrimidin-4-yl)morpholine-2-carboxamide] | +++ (+++ means <200 nM) | 
11 | CC(=O)N1CCN(c2cc(-n3nc(C)cc3C)nc(Nc3ccc(F)c(F)c3)n2)CC1 [Compound 101, 1-(4-(2-((3,4-difluorophenyl)amino)-6-(3,5-dimethyl-1H-pyrazol-1-yl)pyrimidin-4-yl)piperazin-1-yl)ethan-1-one] | +++ (+++ means <200 nM) | 
12 | CC(=O)NCc1cc(Nc2ccc(F)cc2)nc(-n2cc(C)c(C(F)F)n2)c1 [Compound 168, N-((2-(3-(difluoromethyl)-4-methyl-1H-pyrazol-1-yl)-6-((4-fluorophenyl)amino)pyridin-4-yl)methyl)acetamide] | +++ (+++ means <200 nM) | 
13 | Cc1cc(C)n(-c2nc(Nc3ccc(F)cc3F)cc(N3CCN[C@@H](C(N)=O)C3)n2)n1 (single isomer, unassigned) [Compound 125, (−)-4-(6-((2,4-difluorophenyl)amino)-2-(3,5-dimethyl-1H-pyrazol-1-yl)pyrimidin-4-yl)piperazine-2-carboxamide] | ++ (++ means 200 nM-1000 nM) | 
14 | Cc1cc(C)n(-c2cc3ccn(C)c3c(Nc3ccc(Cl)cc3)n2)n1 [Compound 144, N-(4-chlorophenyl)-5-(3,5-dimethyl-1H-pyrazol-1-yl)-1-methyl-1H-pyrrolo [2,3-c]pyridin-7-amine] | + (+ means >1 uM) | 
15 | OCc1ccn(-c2nc(Nc3ccc(F)cc3)cc(N3CCOCC3)n2)n1 [Compound 156, (1-(4-((4-fluorophenyl)amino)-6-morpholinopyrimidin-2-yl)-1H-pyrazol-3-yl)methanol] | + (+ means >1 uM) | 
16 | CC1(O)CN(c2cc(Nc3ccc(F)cc3)nc(-n3ccc(CF)n3)c2)C1 [NSSy5632] |  | +++ (+++ means <200 nM)
17 | CC(=O)c1cc(Nc2cccc(C(F)(F)F)c2)nc(-n2ccc(C)n2)n1 [IN10876-038-P1] |  | + (+ means >1 uM)
18 | Cc1cc(C)n(-c2cc(N3C[C@@H]4C[C@H]3CN4)nc(Nc3ccc(F)cc3F)n2)n1 (stereo in doubt) [Compound 106, 4-((1S,4S)-2,5-diazabicyclo[2.2.1]heptan-2-yl)-N-(2,4-difluorophenyl)-6-(3,5-dimethyl-1H-pyrazol-1-yl)pyrimidin-2-amine] | ++ (++ means 200 nM-1000 nM) | 

Other lines, results leading:

Row | SC100 uM | SC100 (μM) | Compound
19 | + (+ means >1 uM) |  | CC(O)c1ccn(-c2nc(Nc3ccc(F)cc3)cc(N3CCOCC3)n2)n1 (stereo not drawn) [Compound 146, 1-(1-(4-((4-fluorophenyl)amino)-6-morpholinopyrimidin-2-yl)-1H-pyrazol-3-yl)ethan-1-ol]
20 |  | ++ (++ means 200 nM-1000 nM) | Cc1ccn(-c2cc(CO)cc(Nc3ccc(F)cc3F)n2)n1 [NSSy6773, (2-((2,4-difluorophenyl)amino)-6-(3-methyl-1H-pyrazol-1-yl)pyridin-4-yl) methanol]
21 | + (+ means >1 uM) |  | Cc1cc(Nc2ccc(F)cc2)nc(-n2ccc(CO)n2)n1 [Compound 137, (1-(4-((4-fluorophenyl)amino)-6-methylpyrimidin-2-yl)-1H-pyrazol-3-yl)methanol]
22 | +++ (+++ means <200 nM) |  | Cc1cc(C)n(-c2nc(Nc3ccc(F)c(F)c3)cc(N3CC4(COC4)C3)n2)n1 [Compound 111, N-(3,4-difluorophenyl)-2-(3,5-dimethyl-1H-pyrazol-1-yl)-6-(2-oxa-6-azaspiro[3.3]heptan-6-yl)pyrimidin-4-amine]
23 | ++ (++ means 200 nM-1000 nM) |  | FCc1ccn(-c2nc(Nc3ccc(F)cc3)cc(OC3COC3)n2)n1 [Compound 162, 2-(3-(fluoromethyl)-1H-pyrazol-1-yl)-N-(4-fluorophenyl)-6-(oxetan-3-yloxy)pyrimidin-4-amine]
24 |  | + (+ means >1 uM) | Cc1cc(Nc2ccc(F)cc2)nc(-n2ccc(C3CC3)n2)n1 [NSSy6921, 2-(3-cyclopropyl-1H-pyrazol-1-yl)-N-(4-fluorophenyl)-6-methylpyrimidin-4-amine]
25 | ++ (++ means 200 nM-1000 nM) |  | FC(F)c1ccn(-c2nc(Nc3ccc(Cl)cc3)cc(N3CCOCC3)n2)n1 [Compound 154, N-(4-chlorophenyl)-2-(3-(difluoromethyl)-1H-pyrazol-1-yl)-6-morpholinopyrimidin-4-amine]
26 | + (+ means >1 uM) |  | CC(C)(O)c1ccn(-c2nc(Nc3ccc(F)cc3)cc(N3CC4(COC4)C3)n2)n1 [Compound 155, 2-(1-(4-((4-fluorophenyl)amino)-6-(2-oxa-6-azaspiro[3.3]heptan-6-yl)pyrimidin-2-yl)-1H-pyrazol-3-yl)propan-2-ol]
27 |  | ++ (++ means 200 nM-1000 nM) | Cc1ccn(-c2nc(Nc3ccc(F)cc3)cc(C(C)O)n2)n1 (stereo not drawn) [IN10882-054-P1]
28 | ++ (++ means 200 nM-1000 nM) |  | FCc1ccn(-c2nc(Nc3ccc(Cl)cc3)cc(N3CCOCC3)n2)n1 [Compound 151, N-(4-chlorophenyl)-2-(3-(fluoromethyl)-1H-pyrazol-1-yl)-6-morpholinopyrimidin-4-amine]
29 | + (+ means >1 uM) |  | CCn1cnc2c(-n3nc(C)cc3C)nc(Nc3ccc(F)c(F)c3)cc21 [Compound 120, N-(3,4-difluorophenyl)-4-(3,5-dimethyl-1H-pyrazol-1-yl)-1-ethyl-1H-imidazo[4,5-c]pyridin-6-amine]
30 |  | + (+ means >1 uM) | Cc1cc(Nc2ccc(F)cc2)nc(-c2nc(C)ccc2C)n1 [IN11237-001-P1, 2-(3,6-dimethylpyridin-2-yl)-N-(4-fluorophenyl)-6-methylpyrimidin-4-amine]
31 |  | ++ (++ means 200 nM-1000 nM) | Cc1ccn(-c2nc(Nc3ccccc3Cl)cc(C(C)O)n2)n1 (stereo not drawn) [IN10881-055-P1]
32 | + (+ means >1 uM) |  | Cc1cc(C)n(Cc2cc(Nc3ccc(F)cc3)nc(-n3ccc(CO)n3)c2)n1 [Compound 169, (1-(4-((3,5-dimethyl-1H-pyrazol-1-yl)methyl)-6-((4-fluorophenyl)amino)pyridin-2-yl)-1H-pyrazol-3-yl)methanol]
33 | +++ (+++ means <200 nM) |  | Cc1cc(Nc2ccc(Cl)c(C(F)(F)F)c2)nc(-n2ccc(C)n2)n1 [Compound 136, N-(4-chloro-3-(trifluoromethyl)phenyl)-6-methyl-2-(3-methyl-1H-pyrazol-1-yl)pyrimidin-4-amine]
34 | ++ (++ means 200 nM-1000 nM) |  | FCc1ccn(-c2nc(Nc3ccc(F)cc3)cc(N3CCOCC3)n2)n1 [Compound 157, 2-(3-(fluoromethyl)-1H-pyrazol-1-yl)-N-(4-fluorophenyl)-6-morpholinopyrimidin-4-amine]
35 | +++ (+++ means <200 nM) |  | Cc1cc(C)n(-c2nc(Nc3ccc(F)c(F)c3)cc(N3CCOC(CO)C3)n2)n1 (stereo not drawn) [Compound 117, (4-(6-((3,4-difluorophenyl)amino)-2-(3,5-dimethyl-1H-pyrazol-1-yl)pyrimidin-4-yl)morpholin-2-yl)methanol]
36 | ++ (++ means 200 nM-1000 nM) |  | OCc1ccn(-c2nc(Nc3ccc(Cl)cc3)cc(N3CCOCC3)n2)n1 [Compound 149, (1-(4-((4-chlorophenyl)amino)-6-morpholinopyrimidin-2-yl)-1H-pyrazol-3-yl)methanol]
